One assay addresses T1, human Mas receptor (Homo sapiens, UniProt P04201).
T1 construct: expressed in transfected cells
T1 sequence (P04201 1-325): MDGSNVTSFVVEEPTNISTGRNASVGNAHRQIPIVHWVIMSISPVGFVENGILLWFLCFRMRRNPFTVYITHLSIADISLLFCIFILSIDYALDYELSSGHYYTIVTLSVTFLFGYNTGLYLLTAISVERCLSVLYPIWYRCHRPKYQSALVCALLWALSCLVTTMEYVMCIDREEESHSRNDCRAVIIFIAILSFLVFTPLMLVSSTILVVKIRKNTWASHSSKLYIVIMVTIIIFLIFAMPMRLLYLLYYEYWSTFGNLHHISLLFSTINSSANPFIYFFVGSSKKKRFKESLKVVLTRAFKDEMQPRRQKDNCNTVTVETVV
Put plainly: Mas receptor IP3 assay (inverse agonist assay). The format is cell-based. As for the experimental part: The Mas receptor IP3 assay was performed using a mammalian cell line (HEK293) which was transfected with a plasmid containing the human Mas receptor and selected for stable expression of the receptor. For the inverse agonist assay, higher levels of Mas receptor constitutive activity were desired. To achieve this, Mas receptor expression levels were increased by transiently transfecting the same Mas receptor stable cell line with additional human Mas receptor plasmid DNA following standard procedures. These cells were used in the Mas receptor IP3 assay approximately 24 hours post-transfection.
Cells were split into 96-well plates (50,000 cells/well) and allowed to attach for a period of 6 hours. The growth medium was then replaced with medium supplemented with 4 μCi/ml [^3H]myo-inositol (100 μl; Perkin Elmer Life Sciences) and the cells were allowed to incubate for approximately 20 hours. Test compounds were serially diluted in inositol-free media containing 10 mM LiCl. The media in the plates was removed by aspiration, replaced with these test compound solutions and incubated at 37° C. for 1 hour. Following this incubation, the media was removed by aspiration and replaced with buffer containing 0.1M formic acid. The plates were then frozen overnight at −80° C. to achieve complete cell lysis.
The following day, the assay plates were thawed at room temperature. The thawed contents were then transfered to 96-well filter plates (Millipore, Multiscreen) pre-loaded with resin (Biorad, AG1-X8 100-200 mesh, formate form). The plate was filtered using a vacuum manifold and the resin was washed multiple times with water. An elution buffer was then applied (200 μl, 0.2M Ammonium formate/0.1M formic acid) and the resulting eluent was collected, under vacuum, in a 96-well collection plate. Aliquots of the eluent (80 μl) were transferred to filter plates (Whatman, Unifilter GF/C) and dried in a 45° C. oven overnight. Dried plates were counted on a scintillation counter following the addition of an appropriate scintillant (Perkin Elmer Life Sciences, Optiphase Supermix or Hi-Safe 3).

The next assay has as its system rats. As to the kind of experiment: Measurement of blood pressure in rats (telemetry). The format is in vivo, rat. As to conditions: conscious rats, IP injection, about 120 minutes after injection; FIG. 6. How it is done: Cardiac parameters were measured by small transmitting devices, (Data Sciences PhysioTel Telemetry devices), implanted in rats. The implanted transmitting devices were used to measure blood pressure in freely moving conscious animals. There are no external connections or tethering devices that can inhibit animal movement and induce unnecessary stress, which can affect the outcome of a study.
This procedure was performed under modified aseptic conditions. Rats were anesthetized with Isoflurane gas that ranged in concentration from 1.5-2.0%. A cardiac telemetry device was implanted into the peritoneal cavity with a pressure sensing catheter situated no more than 2 cm inside the descending aorta. This was accomplished as follows: The rat was shaved and the incision site was prepared with an iodine solution. The rat was then placed on a heating pad to maintain a constant body temp of 38±0.5° C., and covered with a sterile drape. A 6 cm midline abdominal incision was made to provide access to the implantation area. […] The rats were monitored for 7 days to ensure proper recovery.
On the test day, injections with either vehicle or with test compound were administered via IP injection in volumes of ˜250 μl. Animals were monitored with a resolution of approximately one measurement/min for 60 minutes before injection of vehicle or compound and for about 120 minutes after injection.

pIC50: −log10 of the molar value.

The record followed here is patent US20070254903A1, “Novel Spiroindoline or Spiroisoquinoline Compounds, Methods of Use and Compositions Thereof” (ARENA PHARMACEUTICALS, INC., priority 2003, published 2007).

As a reminder, the pIC50 is the negative decadic logarithm of the IC50, by convention in mol/L.

On to `C=CCN1CCC2(CC1)CN(C(=O)c1cccc(F)c1F)c1ccc(F)cc12` [Compound 75, 1′-(allyl)-1,2-dihydro-5-fluoro-1-(2,3-difluoro-benzoyl)-spiro[3H-indole-3,4′-piperidine]], for which the pIC50 at human Mas receptor (HEK293 cells over-expressing human Mas receptor, average from several experiments) was 6.53; at human Mas receptor (representative experiment, FIG. 1) it was 6.65. Also, the blood pressure change result with rats is on record as “did not result in a significant change in blood pressure”.
